# In patent US20210315992A1, “ADJUVANT EFFECT OF THE TLR1/2 AGONIST DIPROVOCIM SYNERGIZES WITH CHECKPOINT-INHIBITING ANTIBODIES TO ELIMINATE DISEASE” (The Board of Regents of the University of Texas System, priority 2018, published 2021):
# “Also recorded” adds a separate entry of the source.
# Legend:
# human THP-1 cells = test: TNF production by PMA-differentiated human THP-1 cells (ELISA); format: cell-based; settings: 4 hours
# Protocol: For murine BMDCs, bone morrow cells were cultured in Petri dishes in 10 ml DMEM cell culture medium containing 10 ng/ml of murine GM-CSF (R&D Systems). On day 3 of culture, this was replaced with fresh GM-CSF medium. Loosely adherent cells were transferred to a fresh Petri dish and cultured for an additional 4 d. Human PBMC were purchased from Stemcell Technologies. THP-1 (ATCC) cells were differentiated by treatment with 100 nM PMA (Sigma) in RPMI cell culture medium [RPMI containing 10% vol/vol FBS (Gemini Bio Products), 1% penicillin and streptomycin (Life Technologies)] for 24 hours. After that, cells were washed with PBS and cultured in fresh RPMI cell culture medium for 24 hours before use in studies.
# (§1) Cells were seeded onto 96-well plates at 1×10^5 cells per well and stimulated with a Diprovocim (dissolved in DMSO, and final DMSO concentrations (0.2%) were kept constant in all experiments) for 4 h. Mouse TNF, IL-6, or IFN-β, or human TNF in the supernatants were measured by ELISA kits according to the manufacturer's instructions (eBioscience and PBL Assay Science). Pretreatment with 20 μg/ml anti-TLR1, anti-TLR2 or isotype control antibody (eBioscience) was for 1 hour. Unless otherwise indicated, mouse cells were from wild type C57BL/6J mice.
# [1] = system: mouse peritoneal macrophages; test: IFN-β secretion by mouse peritoneal macrophages (ELISA); format: cell-based; settings: 4 hours
# Protocol: Thioglycollate-elicited macrophages were recovered 4 days after i.p. injection of 2 ml BBL thioglycollate medium, brewer modified (4% wt/vol; BD Biosciences) by peritoneal lavage with 5 ml phosphate buffered saline (PBS). The peritoneal macrophages were cultured in DMEM cell culture medium [DMEM containing 10% vol/vol FBS (Gemini Bio Products), 1% vol/vol penicillin and streptomycin (Life Technologies)] at 37° C. and 95% air/5% CO2.
# as §1
# human TLR1/TLR2 = molecular target: T1, human TLR1/TLR2 (Homo sapiens, UniProt O60603+Q15399); test: TNF in THP-1 cells pretreated with anti-TLR1 or anti-TLR2 antibody; format: cell-based; settings: 250 pM, 4 hours; antibody 20 μg/ml, 1 hour pretreatment
# T1 construct: TNF in the supernatants of human THP-1 cells pretreated with control antibody, anti-TLR1 (20 μg/ml), or anti-TLR2 (20 μg/ml); host or cells: THP-1 cells differentiated with 100 nM PMA
# T1 sequence (Q15399 25-786): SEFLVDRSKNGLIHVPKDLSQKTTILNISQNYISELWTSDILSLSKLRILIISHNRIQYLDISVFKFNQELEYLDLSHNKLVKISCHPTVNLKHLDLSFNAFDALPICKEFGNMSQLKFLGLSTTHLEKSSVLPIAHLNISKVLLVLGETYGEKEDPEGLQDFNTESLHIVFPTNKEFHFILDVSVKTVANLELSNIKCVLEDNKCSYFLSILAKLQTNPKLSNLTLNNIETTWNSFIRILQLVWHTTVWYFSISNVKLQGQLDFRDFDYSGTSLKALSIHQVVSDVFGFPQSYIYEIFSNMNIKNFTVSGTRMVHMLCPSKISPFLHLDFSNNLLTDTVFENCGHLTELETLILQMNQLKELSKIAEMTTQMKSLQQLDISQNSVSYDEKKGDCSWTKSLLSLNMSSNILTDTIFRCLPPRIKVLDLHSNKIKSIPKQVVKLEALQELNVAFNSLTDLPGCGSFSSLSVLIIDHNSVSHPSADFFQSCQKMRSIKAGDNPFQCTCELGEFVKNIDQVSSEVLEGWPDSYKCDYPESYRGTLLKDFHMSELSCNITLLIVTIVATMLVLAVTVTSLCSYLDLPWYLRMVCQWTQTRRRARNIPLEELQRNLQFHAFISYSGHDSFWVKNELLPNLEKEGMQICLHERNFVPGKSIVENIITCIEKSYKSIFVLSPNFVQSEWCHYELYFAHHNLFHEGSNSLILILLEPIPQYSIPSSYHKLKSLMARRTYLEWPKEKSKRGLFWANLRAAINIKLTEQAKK
# T1 sequence (O60603 21-784): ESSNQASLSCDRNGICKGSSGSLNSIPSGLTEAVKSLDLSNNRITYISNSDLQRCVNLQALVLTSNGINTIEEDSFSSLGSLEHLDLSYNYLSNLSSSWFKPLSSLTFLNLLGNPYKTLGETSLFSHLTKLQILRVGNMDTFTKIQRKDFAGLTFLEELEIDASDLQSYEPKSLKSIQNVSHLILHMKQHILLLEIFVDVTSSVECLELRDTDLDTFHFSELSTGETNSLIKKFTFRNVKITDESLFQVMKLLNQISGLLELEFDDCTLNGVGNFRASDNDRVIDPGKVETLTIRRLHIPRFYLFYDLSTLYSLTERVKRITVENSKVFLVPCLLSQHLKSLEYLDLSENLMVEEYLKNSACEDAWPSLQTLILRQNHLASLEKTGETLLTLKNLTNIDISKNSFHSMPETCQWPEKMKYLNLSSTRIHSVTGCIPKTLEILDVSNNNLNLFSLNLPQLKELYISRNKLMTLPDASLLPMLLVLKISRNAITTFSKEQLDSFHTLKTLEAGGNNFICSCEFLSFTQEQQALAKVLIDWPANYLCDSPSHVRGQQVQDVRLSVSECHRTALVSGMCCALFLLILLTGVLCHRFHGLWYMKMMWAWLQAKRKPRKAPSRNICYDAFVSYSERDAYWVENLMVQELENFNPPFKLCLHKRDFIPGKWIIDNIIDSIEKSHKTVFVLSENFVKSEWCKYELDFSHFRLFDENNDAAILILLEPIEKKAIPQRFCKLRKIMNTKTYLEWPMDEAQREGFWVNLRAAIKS
# Protocol: as §1
# [2] = system: MAPK and canonical NF-κB signaling; test: Western blotting of THP-1 cell lysates; format: cell-based, human; settings: THP-1 cells, 5 nM
# Protocol: (§2) Mouse peritoneal macrophages or human THP-1 cells (1×10^6 per well) were stimulated in 12-well plates with a Diprovocim at 500 nM for mouse cells or 5 nM for human cells for the indicated times and lysed directly in sample buffer (Sigma). Cell lysates were separated by SDS-PAGE and transferred to nitrocellulose membranes. Membranes were probed with the following antibodies: phospho-IKKα (Ser176)/IKKβ (Ser177), IκBα, phospho-p38 (Thr180/Tyr182), phospho-JNK (Thr183/Tyr185), phospho-ERK1/2 (Thr202/Tyr204) (Cell Signaling Technology) and β-Actin (Sigma).
# [3] = system: MAPK and canonical NF-κB signaling; test: Western blotting of mouse peritoneal macrophage lysates; format: cell-based; settings: mouse peritoneal macrophages, 500 nM
# Protocol: as §2
# [4] = system: OVA peptide-pulsed target cells; test: In vivo CTL killing assay; design: species or system mouse; settings: Tlr1−/− or Tlr2−/− mice
# B16-OVA melanoma [5] = test: B16-OVA melanoma, pre-tumor treatment (immunization on day of tumor inoculation); format: in vivo, mouse
# Protocol: FIG. 4A through FIG. 4J illustrate inhibition of B16-OVA tumor growth by pre- or post-tumor treatment with Diprovocim-adjuvanted tumor vaccination and checkpoint blockade. FIG. 4A provides a schematic of pre- and post-tumor treatment protocols. C57BL/6J mice (n=8 mice per treatment) were injected s.c. with 2×10^5 B16-OVA melanoma cells on day 0. For pre-tumor treatment, mice were immunized i.m. with OVA (100 μg) mixed with vehicle or Diprovocim (10 mg/kg) or alum (2 mg/kg) on the same day prior to tumor injection. Mice received a booster immunization seven days later in which anti-PD-L1 (200 μg) was administered on days 3, 6 and 9 after tumor inoculation by i.p. injection. For post-tumor treatment, initial immunization was on day 3 after tumor inoculation, with a booster seven days later. Anti-PD-L1 (200 μg) was administered on days 3, 6, 9, 12, and 15 after tumor inoculation by i.p. injection. FIG. 4B through FIG. 4F illustrate pre-tumor treatment results. Tumor volume (FIG. 4B and FIG. 4D) and percent mouse survival (survivors/total mice) (FIG. 4C and FIG. 4E). […] FIG. 4G through FIG. 4J illustrate a comparison of pre-tumor (FIG. 4G and FIG. 4H) vs. post-tumor treatment (FIG. 4I and FIG. 4J). Tumor volume (FIG. 4G and FIG. 4I) and percent mouse survival (survivors/total mice) (FIG. 4H and FIG. 4J) are shown. P values for tumor volume analysis apply to the final time point as indicated in graphs and were calculated by Student's t test. P values for survival analysis were calculated by Kaplan-Meier analysis. All results are representative of two independent studies.
# C57BL/6J mice (n=8) were injected s.c. with 2×10^5 B16-OVA melanoma cells on day 0. Anti-PD-L1 (200 μg) or mouse IgG2a isotype control antibody was administered on days 3, 6 and 9 after tumor inoculation by i.p. injection. FIG. 8A is a graph of tumor volume versus time and FIG. 8B is a graph showing percent mouse survival (survivors/total mice) versus time. The control values in both plots are shown above those for the anti-PD-L1 values where the two values diverge. […] Results are representative of two independent studies.
# B16-OVA cells (B16F10 melanoma cells stably expressing chicken ovalbumin) were grown in DMEM containing 10% vol/vol FBS. A total of 2×10^5 B16-OVA cells in 100 μL PBS were injected s.c. into the right flank of 8-12 week old male C57BL/6J mice to establish tumors (n=8 mice per group). For pretreatment, 10 mg/kg Diprovocim-1 or 2 mg/kg alum with or without OVA (100 μg) was injected i.m. into mice on the same day as tumor inoculation (day 0). Mice received a booster shot seven days after the first immunization. On day 3, 6 and 9, some groups were injected i.p. with 200 μg checkpoint inhibitor (anti-mPD-L1, BioXcell) in 100 μl saline.
# Tumors were measured with a digital caliper (Fisher) and the tumor sizes were calculated using the following formula: volume=0.5×length×width^2. Mice were sacrificed when the tumor length or width reached 2 cm.
# B16-OVA melanoma [6] = test: B16-OVA melanoma, post-tumor treatment (immunization day 3 after tumor inoculation); format: in vivo, mouse; settings: post-tumor treatment
# Protocol: C57BL/6J mice (n=8 mice per treatment) were injected s.c. with 2×10^5 B16-OVA melanoma cells on day 0. For pre-tumor treatment, mice were immunized i.m. with OVA (100 μg) mixed with vehicle or Diprovocim (10 mg/kg) or alum (2 mg/kg) on the same day prior to tumor injection. Mice received a booster immunization seven days later in which anti-PD-L1 (200 μg) was administered on days 3, 6 and 9 after tumor inoculation by i.p. injection. For post-tumor treatment, initial immunization was on day 3 after tumor inoculation, with a booster seven days later. Anti-PD-L1 (200 μg) was administered on days 3, 6, 9, 12, and 15 after tumor inoculation by i.p. injection. […] P values for tumor volume analysis apply to the final time point as indicated in graphs and were calculated by Student's t test. P values for survival analysis were calculated by Kaplan-Meier analysis. All results are representative of two independent studies.
# For post-treatment, 10 mg/kg Diprovocim-1 or 2 mg/kg Alum with OVA (100 μg) was injected i.m. into mice on day 3 after tumor inoculation. Mice received a booster shot seven days after the first immunization. On day 3, 6, 9, 12 and 15 after tumor inoculation, mice were also injected i.p. with 200 μg anti-mPD-L1 in 100 μl saline.
# Tumors were measured with a digital caliper (Fisher) and the tumor sizes were calculated using the following formula: volume=0.5×length×width^2. […]
smiles,measurement,setting,value
"O=C(N[C@H]1C[C@@H]1c1ccccc1)[C@@H]1CN(C(=O)c2ccc(C(=O)N3C[C@@H](C(=O)N[C@H]4C[C@@H]4c4ccccc4)[C@H](C(=O)N[C@H]4C[C@@H]4c4ccccc4)C3)cc2)C[C@H]1C(=O)N[C@H]1C[C@@H]1c1ccccc1 [Diprovocim-1, (3S,3'S,4S,4'S)-1,1′-Terephthaloylbis(N^3,N^4-bis((1S,2R)-2-phenylcyclo-propyl)pyrrolidine-3,4-dicarboxamide)]",EC50,"human THP-1 cells; Homo sapiens, THP-1 cells, read-out: EC50, dose-dependent TNF production",110 pM
same,activation of TNF production compared with Pam3CSK4,human THP-1 cells; human THP-1 cells,more potent and efficacious; also recorded: more potent than Pam3CSK4
same,type I IFN (IFN-β) production,[1],failed to stimulate type I IFN production
same,type I IFN (IFN-β) production,[1]; listed as Diprovocim,does not stimulate IFN-β secretion
same,effect on THP-1 cells (TNF) after TLR1 or TLR2 antibody,human TLR1/TLR2,significantly reduced
same,phosphorylation of signaling proteins and IκBα degradation,[2],"induced phosphorylation of IκKα, IKKβ, p38, JNK, and ERK, as well as degradation of IκBα"
same,phosphorylation of signaling proteins and IκBα degradation,[3],"induced phosphorylation of IκKα, IKKβ, p38, JNK, and ERK, as well as degradation of IκBα"
same,adjuvant activity in CTL killing in TLR1- and/or TLR2-deficient mice,[4],abrogated
same,tumor growth or mouse survival,B16-OVA melanoma [5]; Diprovocim alone (no OVA) combined with anti-PD-L1 treatment,no effect
same,"effect on tumor growth, survival rate, and survival time compared with alum",B16-OVA melanoma [5]; pre-tumor treatment,superior to that of alum
same,tumor growth rates and survival times compared with vehicle alone,"B16-OVA melanoma [5]; single agent, no anti-PD-L1, i.m. day 0 and booster day 7",similar
same,"effect on tumor growth, survival rate, and survival time compared with alum",B16-OVA melanoma [6],superior to that of alum
